One assay deals with DNA-PK (Homo sapiens, UniProt P78527). Nature of the assay: DNA-PK inhibition assay (radiometric, 33P-ATP). Format: biochemical. Particulars: 100 μM ATP, competitive tight-binding fit. In short, it runs like this: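 Approx. 6 nM DNA-PK with 10 µg/mL sheared dsDNA, 0.8 mg/mL peptide substrate and 100 µM 33P-ATP in HEPES pH 7.5, 10 mM MgCl2; 45 min, phosphoric acid quench. Phosphopeptide captured on filter plates and counted by scintillation; Ki from a competitive tight-binding model fit.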

Assay [1] relates to DNA-PK null SCID mouse cell line. Nature of the assay: Cell viability following irradiation (CellTiter-Glo). Particulars: single agent or in combination with radiation. It is filed as cell-based. The procedure: (§1) To evaluate the radiosensitizing effects of compounds of the invention in combination with ionizing radiation (IR), a broad panel of cell lines across multiple tumor types and genetic backgrounds were tested. Cells were incubated with DMSO or compound 578 for 30 minutes and then exposed to various doses of radiation (0, 0.5, 1, 2, 4, 6, 8, and 16 Gy). Cell viability was assessed at 6 days using CellTiter-Glo® (Promega, Inc).
In general terms: ATP-based viability assays read luminescence as a measure of living cells.

In another assay the test system is H2009. Described as above. It is filed as cell-based. Particulars: compound 2.1 μM + IR, 6 days, DMSO 7.6 Gy. Here is the method:
as §1

As a reminder, the Ki is the dissociation constant of the complex between target and ligand, obtained from inhibition or displacement.

On DNA-PK, `CNC(=O)c1ccnc2c([C@H](C)CNc3cc(-c4cnc(C)nc4)ncn3)cccc12` [Compound 578, (S)—N-methyl-8-(1-((2′-methyl-[4,5′-bipyrimidin]-6-yl)amino)propan-2-yl)quinoline-4-carboxamide] gave a Ki below 0.03 µM. Moreover, in assay [1], the “effect on cell viability” value is “minimal effect on cell viability”. The “EC50 IR” value in the assay on H2009 is reported as 2.5 Gy.
The molecule `C[C@H](CNc1cc(-c2cnc(F)c(N)c2)ncn1)c1ccnc2c1OCCO2` [Compound 554] showed a Ki on DNA-PK below 0.03 µM.
`CNC(=O)c1ccc([C@H](C)CNc2cc(-c3ccc(C)nc3)ncn2)c(OC)c1` [Compound 175]: the Ki on DNA-PK is below 0.03 µM.
Still for that read-out and setting: to `Cc1ccc(-c2cc(NC[C@@H](C)c3ccnc4c3OCCN4)ncn2)cn1` [Compound 660] belongs below 0.03 µM; to `CNC(=O)c1ccc([C@H](C)CNc2cc(-c3cnc4c(cnn4C4CCN(C)CC4)c3)ncn2)c(OC)c1` [Compound 286], below 0.03 µM.
Same read-out and setting: to `CNC(=O)c1ccnc2c([C@H](C)CNc3cc(-c4cnc(N)nc4)ncn3)cccc12` [Compound 608] belongs below 0.03 µM.
Same read-out and setting: for `Cc1ccc(-c2cc(NC[C@@H](C)c3ccnc4cccnc34)ncn2)cn1` [Compound 495] the value was below 0.03 µM; for `CNC(=O)c1ccc([C@H](C)CNc2cc(-c3ccc(N4CCCC4)nc3)ncn2)c(OC)c1` [Compound 363], below 0.03 µM; for `Cc1ccc(-c2cc(NC[C@@H](C)c3cccc4c(C(=O)NCC(F)F)ccnc34)ncn2)cn1` [Compound 569], below 0.03 µM.

The record behind these values is patent US10391095B2, “DNA-PK inhibitors” (Vertex Pharmaceuticals Incorporated, priority 2012, dated 2019).
